Test results from patent US6635265B1, “Materials and methods useful for the control of insect larvae” (University of Florida Research Foundation, Inc., priority 1999, dated 2003).
Square brackets hold non-standard residues; d marks the D form. Ends that are not written are not given here.

Legend:
mosquito larvae = experiment: Feeding TMOF and its analogue peptides to mosquito larvae (LD50); type: in vivo, Aedes aegypti; conditions: 100 μl microtiter plates, 7 days, diet of autoclaved yeast (1 mg/ml)
Description: TMOF can traverse the gut epithelium, enter the hemolymph and bind a gut receptor (Borovsky, D. and F. Mahmood (1995) “Feeding the mosquito Aedes aegypti with TMOF and its analogs; effect on trypsin biosynthesis and egg development,” Regulatory Peptides 57:273-281.; Borovsky, D., C. A. Powell, J. K. Nayar, J. E. Blalock, and T. K. Hayes (1994) “Characterization and localization of mosquito-gut receptors for trypsin modulating oostatic factor using complementary peptide immunochemistry” FASEB J. 8:350-355.). […] This characteristic permits testing of TMOF and its analogs by feeding them to mosquito and other pest larvae. To determine whether truncated TMOF peptides have an effect on larval growth and development, a series of peptides were synthesized and tested by feeding them to mosquito larvae at concentrations of 0.5 to 5.0 mg/ml (Table 1). Individual, newly hatched Aedes aegypti larvae were maintained in separate microtiter wells on a diet of autoclaved yeast (1 mg/ml). The diet was supplemented with TMOF peptides (Table 1). An identical number of larvae which were maintained on yeast served as a control. […] All control groups survived and larval growth and development was normal. Since larvae swallow only a small portion of the yeast particles that adsorbed the peptides, it is assumed that approximately 1 to 20 ng are taken orally at the high concentrations.

[1] = system: fourth instar Heliothis virescens; experiment: Feeding TMOF analogs to fourth instar H. virescens: larval weight; type: in vivo; conditions: for Weight Gain / Weight mg ± S.E.M. End: fourth instar larvae fed synthetic food and 0.8 mg of TMOF analogs for 5 days
Procedure: In both cases a reduction in weight gain and trypsin inhibition was noted (Tables 3 and 4).
(§1) Larvae were fed for 5 to 14 days and larval weight and trypsin activity were measured at the end of the experimental periods. […] When first instar larvae were fed for 14 days on analogs 15 and 16 (Table 4), an 18% and 26% reduction in weight was observed.

[2] = system: first instar H. virescens larvae; experiment: Feeding of first instar H. virescens on TMOF analogs for 14 days; type: in vivo, Heliothis virescens; conditions: first instar larvae fed individually 1.6 µg of TMOF analogs for 14 days
trypsin biosynthesis [3] = experiment: Feeding TMOF analogs to fourth instar H. virescens: gut trypsin biosynthesis ([3H]DFP); type: in vivo, Heliothis virescens; conditions: guts of fourth instar larvae after 5 days feeding on 0.8 mg of TMOF analogs
Procedure: as §1

trypsin biosynthesis [4] = experiment: Injecting TMOF-R analogues into second instar Heliothis virescens: trypsin biosynthesis (BApNA); type: in vivo; conditions: second instar larvae, 24 hours after injection
Procedure: TMOF analogues (5 to 8 amino acids in length, and polymers of these analogues) in which Arg was added at the C-terminus were evaluated to determine their effect on larval growth and development. A series of analogues were synthesized and tested by feeding them to mosquito larvae at concentrations of (0.5 to 5.0 mg/ml; Table 4). Concentrations of 2.0 to 0.065 mg/ml were used to feed mosquito larvae and calculate the Lethal Dose at 50% mortality (LD50; Table 4) of the TMOF analogues. […] In both cases larval death and trypsin biosynthesis inhibition was noted (Table 4 and 5). […] The advantage of using short analogues connected by Arg is that they can be digested in the gut into short TMOF analogues that can penetrate the midgut much faster than longer analogues.
Individual second instar larvae of H. virescens were injected with TMOF-R analogues (10 to 0.25 μg per larva) and maintained in separate plastic cups on artificial diet. Twenty-four hours after the injections 3 groups of larvae (3 per group) were assayed for trypsin biosynthesis using BApNA (trypsin specific substrate; Table 5).

Substance	LD50 mM ± S.E.M. (mosquito larvae)	other results
FAP (TMOF peptide) [25]	3 3.8 ± 0.23 mM	
Y(D)DPAP (Y[dD]PAP) [33]	3 1.2 ± 0.3 mM	Weight Gain [1]: 153 mg; Weight mg ± S.E.M. End [1]: 188 ± 12 mg; Number of Dead Larvae [2]: 1; Weight (mg) ± S.E.M. [2]: 152 ± 27 mg; Weight Reduction (%) ± S.E.M. [2]: 7 ± 1%; Inhibition (% ± S.E.M.) of trypsin biosynthesis (trypsin biosynthesis [3]): 15 ± 1.3%; Trypsin μg ± S.E.M. (trypsin biosynthesis [3]): 2.1 ± 0.2 µg
YDPAA (TMOF peptide) [55]	3 1.6 ± 0.13 mM	
YNPAP (TMOF peptide) [52]	3 0.55 ± 0.03 mM	
YDPAR (TMOF-R analogue peptide) [59]		Inhibition (% ± S.E.M.) of trypsin biosynthesis (trypsin biosynthesis [4]; 0.5 μg/injection): 1 ± 0.07%; Inhibition (% ± S.E.M.) of trypsin biosynthesis (trypsin biosynthesis [4]; 1 μg/injection): 39 ± 2%; Inhibition (% ± S.E.M.) of trypsin biosynthesis (trypsin biosynthesis [4]; 10 μg/injection): 33.5 ± 9%
YSPAP (TMOF peptide) [54]	3 1.4 ± 0.03 mM	larval weight and trypsin biosynthesis (in words) ([1]; fourth instar larvae fed TMOF analog peptides for 5 days): Reductions in larval weight and trypsin biosynthesis were observed; Weight Gain [1]: 151 mg; Weight mg ± S.E.M. End [1]: 188 ± 10.6 mg; Number of Dead Larvae [2]: 0; Weight (mg) ± S.E.M. [2]: 168 ± 11 mg; Weight Reduction (%) ± S.E.M. [2]: 0%; Inhibition (% ± S.E.M.) of trypsin biosynthesis (trypsin biosynthesis [3]): 19 ± 2%; Trypsin μg ± S.E.M. (trypsin biosynthesis [3]): 2.0 ± 0.2 µg
YDA (TMOF peptide) [36]	3 1.6 ± 0.13 mM	
ADP (TMOF peptide) [17]	3 > 6.6 mM	
YSF (TMOF peptide) [53]	3 1.08 ± 0.12 mM	
YDPLP (TMOF peptide) [49]	3 1.5 ± 0.04 mM	
FDP (TMOF peptide) [26]	3 1.98 ± 0.6 mM	
DPA	3 0.4 ± 0.03 mM	
YDF (TMOF peptide) [38]	3 0.97 ± 0.11 mM	
(D)YDP ([dY]-Asp-Pro) [43]	3 0.51 ± 0.05 mM	
DAA (TMOF peptide) [20]	3 0.91 ± 0.06 mM	
YDPAP (TMOF peptide) [11]	3 1.64 ± 0.03 mM	
FSP (TMOF peptide) [28]	3 2.3 ± 0.13 mM	
(D)YDPAP ([dY]DPAP) [46]	3 0.56 ± 0.03 mM	
YFPAP (TMOF peptide) [51]	3 0.64 ± 0.03 mM	
Y(D)DP (Tyr-[dD]-Pro) [32]	3 0.28 ± 0.01 mM	
ADPAP (TMOF peptide) [18]	4 2.0 ± 0.36 mM	
APA (TMOF peptide) [19]	3 1.0 ± 0.07 mM	
YDPAL (TMOF peptide) [45]	3 0.52 ± 0.03 mM	
